According to the NIST ThermoML archive (doi:10.1021/je049738c):

Experiments:
[1] = 298.15 K; 101.33 kPa; Liquid
[2] = molar heat capacity at constant pressure; conditions: 298.15 K; 101.33 kPa; Liquid; Flow calorimetry
[3] = xn = mol fraction of the nth substance listed; conditions: 298.15 K, 101.3 kPa, Liquid
[4] = heat capacity at constant pressure per volume; xn = mol fraction of the nth substance listed; conditions: 298.15 K, 101.3 kPa, Liquid, Flow calorimetry

CCCO [propan-1-ol]
Conditions | mass density [kg/m3] | molar heat capacity at constant pressure [J/K/mol]
[1] | 799.52 | –
[2] | – | 144.3

CC(C)CCO [3-methylbutan-1-ol]
Conditions | mass density [kg/m3] | molar heat capacity at constant pressure [J/K/mol]
[1] | 804.18 | –
[2] | – | 209.3

CC(C)CCO [3-methylbutan-1-ol] + O
Conditions | heat capacity, [4] [J/K/m3] | mass density, [3] [kg/m3]
x1 = 0.000488 | 4170700 | 996.67
x1 = 0.000691 | 4171700 | 996.51
x1 = 0.001002 | 4173400 | 996.29
x1 = 0.001048 | 4173600 | 996.22
x1 = 0.00119 | 4174300 | 996.13
x1 = 0.001204 | 4174400 | 996.13
x1 = 0.001362 | 4175200 | 995.99
x1 = 0.001742 | 4177100 | 995.68
x1 = 0.002039 | 4178600 | 995.47
x1 = 0.002063 | 4178800 | 995.45
x1 = 0.002225 | 4179800 | 995.36

CCC(O)CC [3-pentanol] + O
Conditions | heat capacity, [4] [J/K/m3] | mass density, [3] [kg/m3]
x1 = 0.000803 | 4173700 | 996.49
x1 = 0.001033 | 4175300 | 996.33
x1 = 0.001252 | 4176900 | 996.18
x1 = 0.001864 | 4181400 | 995.77
x1 = 0.002399 | 4185100 | 995.4
x1 = 0.003282 | 4191500 | 994.83
x1 = 0.005357 | 4206400 | 993.51
x1 = 0.005689 | 4209600 | 993.32
x1 = 0.006773 | 4217300 | 992.61

CC(C)O [propan-2-ol] + O
Conditions | heat capacity, [4] [J/K/m3] | mass density, [3] [kg/m3]
x1 = 0.001072 | 4172300 | 996.38
x1 = 0.001923 | 4175600 | 995.85
x1 = 0.003078 | 4179900 | 995.16
x1 = 0.00413 | 4183900 | 994.53
x1 = 0.005976 | 4191200 | 993.44
x1 = 0.009312 | 4204200 | 991.51
x1 = 0.01437 | 4225200 | 988.91
x1 = 0.01665 | 4234700 | 987.73

CC(C)(C)CO [2,2-dimethyl-1-propanol] + O
Conditions | heat capacity, [4] [J/K/m3] | mass density, [3] [kg/m3]
x1 = 0.001702 | 4176200 | 995.77
x1 = 0.002268 | 4178900 | 995.36
x1 = 0.002665 | 4181000 | 995.08
x1 = 0.003113 | 4183100 | 994.74
x1 = 0.003563 | 4185300 | 994.42
x1 = 0.004331 | 4189100 | 993.87
x1 = 0.004832 | 4191800 | 993.52

CCC(C)CO (centres undefined) [2-methyl-1-butanol] + O
Conditions | heat capacity, [4] [J/K/m3] | mass density, [3] [kg/m3]
x1 = 0.000842 | 4172700 | 996.43
x1 = 0.000975 | 4173400 | 996.33
x1 = 0.001072 | 4174000 | 996.28
x1 = 0.001376 | 4175300 | 996.04
x1 = 0.001398 | 4175600 | 996.04
x1 = 0.00154 | 4176300 | 995.95
x1 = 0.002056 | 4179200 | 995.56
x1 = 0.002325 | 4180700 | 995.4
x1 = 0.002361 | 4180800 | 995.38
x1 = 0.002467 | 4181400 | 995.28
x1 = 0.002771 | 4182700 | 995.09
x1 = 0.002868 | 4183400 | 995.02
x1 = 0.002988 | 4184000 | 994.91
x1 = 0.003068 | 4184200 | 994.84
x1 = 0.003107 | 4184500 | 994.81
x1 = 0.003446 | 4186500 | 994.6

CC(C)O [propan-2-ol]
Conditions | mass density [kg/m3] | molar heat capacity at constant pressure [J/K/mol]
[1] | 780.72 | –
[2] | – | 155.2

CCC(C)CO (centres undefined) [2-methyl-1-butanol]
Conditions | mass density [kg/m3] | molar heat capacity at constant pressure [J/K/mol]
[1] | 814.54 | –
[2] | – | 215

CC(C)CO [2-methyl-1-propanol]
Conditions | mass density [kg/m3] | molar heat capacity at constant pressure [J/K/mol]
[1] | 797.63 | –
[2] | – | 181.9

CCC(O)CC [3-pentanol]
Conditions | mass density [kg/m3] | molar heat capacity at constant pressure [J/K/mol]
[1] | 815.3 | –
[2] | – | 254.6

CCCCO [butan-1-ol] + O
Conditions | heat capacity, [4] [J/K/m3] | mass density, [3] [kg/m3]
x1 = 0.001656 | 4176100 | 995.94
x1 = 0.003814 | 4186600 | 994.54
x1 = 0.005524 | 4195100 | 993.48
x1 = 0.006663 | 4200400 | 992.78
x1 = 0.009163 | 4213100 | 991.32
x1 = 0.01415 | 4239900 | 988.57
x1 = 0.01604 | 4251000 | 987.56

CCCCO [butan-1-ol]
Conditions | mass density [kg/m3] | molar heat capacity at constant pressure [J/K/mol]
[1] | 805.62 | –
[2] | – | 177.1

CCC(C)(C)O [2-methylbutan-2-ol] + O
Conditions | heat capacity, [4] [J/K/m3] | mass density, [3] [kg/m3]
x1 = 0.00166 | 4180000 | 995.9
x1 = 0.001774 | 4181000 | 995.84
x1 = 0.002795 | 4188600 | 995.15
x1 = 0.005273 | 4207000 | 993.56
x1 = 0.006999 | 4220500 | 992.51
x1 = 0.009307 | 4239300 | 991.15
x1 = 0.01213 | 4263400 | 989.63
x1 = 0.01355 | 4275900 | 988.89

CCCC(C)O (centres undefined) [pentan-2-ol]
Conditions | mass density [kg/m3] | molar heat capacity at constant pressure [J/K/mol]
[1] | 804.55 | –
[2] | – | 235.3

CC(C)C(C)O (centres undefined) [3-methyl-2-butanol]
Conditions | mass density [kg/m3] | molar heat capacity at constant pressure [J/K/mol]
[1] | 812.31 | –
[2] | – | 249.5

CCCO [propan-1-ol] + O
Conditions | heat capacity, [4] [J/K/m3] | mass density, [3] [kg/m3]
x1 = 0.000792 | 4170900 | 996.59
x1 = 0.002096 | 4175200 | 995.84
x1 = 0.002978 | 4178200 | 995.36
x1 = 0.006166 | 4189500 | 993.64
x1 = 0.008272 | 4197000 | 992.56
x1 = 0.01185 | 4209800 | 990.81
x1 = 0.01732 | 4230600 | 988.27
x1 = 0.02089 | 4243100 | 986.68

CCCC(C)O (centres undefined) [pentan-2-ol] + O
Conditions | heat capacity, [4] [J/K/m3] | mass density, [3] [kg/m3]
x1 = 0.001235 | 4176700 | 996.1
x1 = 0.001831 | 4180800 | 995.66
x1 = 0.002163 | 4182900 | 995.4
x1 = 0.002785 | 4187300 | 994.95
x1 = 0.003519 | 4192400 | 994.4
x1 = 0.004937 | 4202200 | 993.42
x1 = 0.0059 | 4209100 | 992.73
x1 = 0.00695 | 4217100 | 992.05

CCC(C)O (centres undefined) [butan-2-ol]
Conditions | mass density [kg/m3] | molar heat capacity at constant pressure [J/K/mol]
[1] | 802.07 | –
[2] | – | 197.8

CC(C)CO [2-methyl-1-propanol] + O
Conditions | heat capacity, [4] [J/K/m3] | mass density, [3] [kg/m3]
x1 = 0.001575 | 4175200 | 995.99
x1 = 0.00181 | 4176000 | 995.84
x1 = 0.003631 | 4184200 | 994.66
x1 = 0.006044 | 4195700 | 993.15
x1 = 0.009083 | 4209900 | 991.35
x1 = 0.01143 | 4220800 | 989.99
x1 = 0.01647 | 4247000 | 987.23

CC(C)C(C)O (centres undefined) [3-methyl-2-butanol] + O
Conditions | heat capacity, [4] [J/K/m3] | mass density, [3] [kg/m3]
x1 = 0.000786 | 4172900 | 996.49
x1 = 0.001489 | 4177000 | 996.01
x1 = 0.001981 | 4180000 | 995.68
x1 = 0.004452 | 4194900 | 994.09
x1 = 0.005029 | 4198500 | 993.72
x1 = 0.006358 | 4206900 | 992.91
x1 = 0.007481 | 4213800 | 992.25
x1 = 0.008252 | 4218900 | 991.83

CCCCCO [pentan-1-ol] + O
Conditions | heat capacity, [4] [J/K/m3] | mass density, [3] [kg/m3]
x1 = 0.001069 | 4174500 | 996.21
x1 = 0.001645 | 4177900 | 995.78
x1 = 0.001775 | 4178800 | 995.68
x1 = 0.001916 | 4179400 | 995.57
x1 = 0.002185 | 4181300 | 995.37
x1 = 0.002474 | 4182900 | 995.16
x1 = 0.002743 | 4184600 | 994.96
x1 = 0.003049 | 4186100 | 994.73
x1 = 0.003529 | 4189200 | 994.4

CCC(C)(C)O [2-methylbutan-2-ol]
Conditions | mass density [kg/m3] | molar heat capacity at constant pressure [J/K/mol]
[1] | 804.01 | –
[2] | – | 251.1

CC(C)(C)O [2-methylpropan-2-ol] + O
Conditions | heat capacity, [4] [J/K/m3] | mass density, [3] [kg/m3]
x1 = 0.000883 | 4173400 | 996.41
x1 = 0.001796 | 4178600 | 995.74
x1 = 0.002923 | 4185200 | 994.98
x1 = 0.004051 | 4192000 | 994.22
x1 = 0.006409 | 4206500 | 992.64
x1 = 0.00867 | 4220900 | 991.22
x1 = 0.01153 | 4239100 | 989.43
x1 = 0.01716 | 4276400 | 986.35

CCCCCO [pentan-1-ol]
Conditions | mass density [kg/m3] | molar heat capacity at constant pressure [J/K/mol]
[1] | 810.68 | –
[2] | – | 208.8

CCC(C)O (centres undefined) [butan-2-ol] + O
Conditions | heat capacity, [4] [J/K/m3] | mass density, [3] [kg/m3]
x1 = 0.001648 | 4177000 | 995.99
x1 = 0.00244 | 4181300 | 995.46
x1 = 0.003665 | 4188100 | 994.69
x1 = 0.006146 | 4201900 | 993.17
x1 = 0.006234 | 4202800 | 993.15
x1 = 0.008153 | 4213300 | 991.98
x1 = 0.009049 | 4218100 | 991.43
x1 = 0.01047 | 4226800 | 990.68
x1 = 0.01411 | 4248500 | 988.8
x1 = 0.01461 | 4251800 | 988.51
x1 = 0.01766 | 4270000 | 987
